Data published in PMC4703992, “Crystal structures of Mycobacterium tuberculosis HspAT and ArAT reveal structural basis of their distinct substrate specificities” (Scientific Reports, 2016).

What was measured:
mHspAT [1] = target: T1, mHspAT (Mycobacterium tuberculosis, UniProt P9WML7); assay type: biochemical; conditions: pH 8.4, 37 °C
T1 construct: gene hisC; recombinant, vector pYUB1062, over-expressed in M. smegmatis mc2 4517; homodimer

mHspAT [2] = target: T1, mHspAT; assay type: binding
mArAT [3] = target: T2, mArAT (Mycobacterium tuberculosis, UniProt P9WML5)
T2 construct: gene pat

mArAT [4] = target: T2, mArAT; remark: listed apart in the source
N[C@@H](Cc1ccccc1)C(=O)O = experiment: purified protein; conditions: pH 8.4; 37.0 °C
[5] = test system: N[C@H](COP(=O)(O)O)Cc1c[nH]cn1; experiment: purified protein; conditions: pH 8.4; 37.0 °C

T2 sequence (P9WML5 whole entry): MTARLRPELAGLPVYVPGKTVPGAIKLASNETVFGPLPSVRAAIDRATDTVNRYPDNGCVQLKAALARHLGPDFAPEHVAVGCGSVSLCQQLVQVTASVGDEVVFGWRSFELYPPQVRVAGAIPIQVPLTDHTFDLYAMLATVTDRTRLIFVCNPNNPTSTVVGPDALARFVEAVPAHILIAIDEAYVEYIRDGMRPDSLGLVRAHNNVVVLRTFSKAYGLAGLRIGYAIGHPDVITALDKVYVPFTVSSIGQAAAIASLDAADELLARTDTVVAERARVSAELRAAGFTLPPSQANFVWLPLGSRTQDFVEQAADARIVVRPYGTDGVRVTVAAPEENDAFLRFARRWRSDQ
T1 sequence (P9WML7 whole entry): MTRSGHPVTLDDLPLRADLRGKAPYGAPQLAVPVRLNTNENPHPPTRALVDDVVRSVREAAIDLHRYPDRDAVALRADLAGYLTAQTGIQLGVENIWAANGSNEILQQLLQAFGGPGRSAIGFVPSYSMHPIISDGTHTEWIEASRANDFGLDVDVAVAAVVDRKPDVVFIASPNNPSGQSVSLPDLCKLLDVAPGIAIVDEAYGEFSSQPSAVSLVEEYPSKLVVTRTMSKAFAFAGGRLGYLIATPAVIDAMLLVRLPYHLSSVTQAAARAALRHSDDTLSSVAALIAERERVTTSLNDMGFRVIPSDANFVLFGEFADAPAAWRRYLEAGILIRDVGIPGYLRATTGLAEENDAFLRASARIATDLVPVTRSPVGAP

O=S(=O)(O)CCN1CCOCC1 [MES]
Vo'/Vo (mHspAT [1]): concentration dependent inhibition of mHspAT-Hsp activity with MES

Cc1ncc(COP(=O)(O)O)c(C=O)c1O [PLP]
crystal structure, 2.05 Å (mHspAT [2]): binding of the PLP as an internal aldimine via a Schiff’s base with Lys232 Nζ
crystal structure, 1.98 Å (mArAT [3]): it exists as a PLP-Phe external aldimine intermediate complex in one of the monomers

Cc1ncc(COP(=O)(O)O)c(CN)c1O [PMP]
crystal structure, 1.95 Å (mArAT [4]): In the active site of mArAT, indigenously bound PMP and succinate were modelled

N[C@@H](Cc1ccccc1)C(=O)O [Phe]
crystal structure, 1.98 Å (mArAT [3]): Phe is present in the active site of both the monomers of a homodimer

O=C(O)CCC(=O)O [succinate]
crystal structure, 1.95 Å (mArAT [4]): In the dicarboxylate bound form, succinate exists as a non-covalently linked moiety

mHspAT (Mycobacterium tuberculosis H37Rv)
Km (N[C@@H](Cc1ccccc1)C(=O)O): 7.1 ± 0.81 mM
kcat/Km (N[C@@H](Cc1ccccc1)C(=O)O): 30000 ± 3000 M⁻¹ s⁻¹
Km [5]: 0.42 ± 0.02 mM
kcat/Km [5]: 1.02e+06 ± 87000 M⁻¹ s⁻¹
